From patent US6605424B1, “Method of detecting inhibitors of agonist-specific desensitization” (Duke University, priority 1989, dated 2003)
No end group written: not given here.

Columns and labels:
[1] = target: T1, βAR kinase (Bos taurus, UniProt P21146); experiment: Phosphorylation of purified reconstituted β2ARs by purified βAR kinase (Example II); type: biochemical, bovine; details: 100 μM
T1 construct: βAR kinase was purified from bovine cerebral cortex; from tissue; host or cells: bovine cerebral cortex
T1 sequence (P21146 1-689): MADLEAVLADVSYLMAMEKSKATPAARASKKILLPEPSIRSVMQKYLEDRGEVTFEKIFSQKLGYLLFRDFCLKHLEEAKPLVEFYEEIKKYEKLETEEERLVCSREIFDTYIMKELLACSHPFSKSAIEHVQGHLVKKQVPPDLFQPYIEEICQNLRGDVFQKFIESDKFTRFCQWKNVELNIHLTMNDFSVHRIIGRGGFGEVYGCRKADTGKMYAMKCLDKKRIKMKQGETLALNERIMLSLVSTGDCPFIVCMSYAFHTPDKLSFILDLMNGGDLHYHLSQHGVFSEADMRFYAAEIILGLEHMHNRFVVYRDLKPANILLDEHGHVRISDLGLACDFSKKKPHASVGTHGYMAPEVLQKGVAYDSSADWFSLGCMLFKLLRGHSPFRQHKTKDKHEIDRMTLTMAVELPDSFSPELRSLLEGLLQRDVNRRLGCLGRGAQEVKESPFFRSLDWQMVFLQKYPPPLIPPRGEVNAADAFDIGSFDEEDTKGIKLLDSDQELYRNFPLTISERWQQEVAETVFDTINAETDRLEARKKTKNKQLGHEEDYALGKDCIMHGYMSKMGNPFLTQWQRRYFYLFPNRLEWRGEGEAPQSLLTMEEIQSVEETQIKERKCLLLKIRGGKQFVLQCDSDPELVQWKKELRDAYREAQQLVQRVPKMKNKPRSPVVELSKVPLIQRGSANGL
Experimental: FIG. 7. […] (Inset) Relevant section of a representative autoradiogram. Data are means±SEM of three independent experiments. […] Desensitization was measured as the percent loss of stimulation by 10 μM (−)-isoproterenol of adenylyl cyclase activity in membranes. […] Data are means±SEM of four independent experiments.
Purified β2ARs were inserted into phosphatidylcholine vesicles by chromatography on Extracti-gel, followed by polyethylene glycol treatment and centrifugation at 280,000×g for 90 min (Cerione et al (1984) Biochemistry 23:4519-4525). Phosphorylation of the reconstituted receptors by purified βAR kinase was done in the presence of 50 μM (−)-isoproterenol as described (Benovic et al (1987) J. Biol. Chem. 262:9026-9032). Subsequently, the samples were subjected to sodium dodecyl sulfate polyacrylamide gel electrophoresis on 10% gels (Laemmli (1970) Nature 227:680-685). The phosphorylated β2ARs were visualized by autoradiography, and the corresponding bands were cut out and their content of ^32P quantified.

[2] = test system: β2ARs in permeabilized A431 cells; experiment: Desensitization of β2ARs in permeabilized A431 cells; type: cell-based, human; details: 100 μM
Experimental: Permeabilization of cells was accomplished as follows. Human epidermoid carcinoma A431 cells were grown to about 95% confluence in Dulbecco's modified Eagle's medium supplemented with 10% fetal calf serum. Cells were harvested with collagenase, washed three times with calcium-free phosphate-buffered saline (PBS), then washed twice in 150 mM potassium glutamate/10 mM Hepes/5 mM EGTA/7 mM MgCl2, pH 7.1 (KG buffer), and finally resuspended in KG buffer supplemented with 5 mM glucose and 2 mM ATP (KG-A buffer) at a density of 4×10^7 cells per ml.
At 4×10^7 cells per ml, about 0.015% digitonin was necessary to achieve permeabilization of >95% cells as assessed by staining with trypan blue. In all experiments, digitonin was added stepwise until >95% of the cells were trypan blue positive.

[3] = target: T1, βAR kinase; experiment: Phosphorylation of β2AR and synthetic β2AR peptides by βAR kinase (substrate kinetics); type: biochemical, bovine; details: for phosphorylation by βAR kinase: FIG. 10; for Ratio (Vmax/Km relative to β2AR + ISO): substrate of βAR kinase
Experimental: FIG. 11. Kinetic parameters of the βAR kinase for β2AR. Reconstituted β2AR (0.05-0.3 μM) was incubated for 15 min at 30° C. with purified βAR kinase (˜30 ng) in the presence (◯) or absence (●) of 50 μM (−)-isoproterenol. Reactions were stopped by the addition of SDS sample buffer before electrophoresis on a 10% SDS polyacrylamide gel. ^32P-labeled receptor was determined by cutting and counting the dried gel following […] autoradiography.
FIG. 12. Kinetic parameters of the βAR kinase for synthetic peptides CT-2 and CT-3. The synthetic β2AR peptides CT-2 (0.6-3.3 mM;Δ) and CT-3 (0.6-4.3 mM; ▴) were incubated for 60 min at 30° C. with purified βAR kinase (˜30 ng). Reactions were stopped by the addition of SDS urea sample buffer before electrophoresis on a 9% SDS urea polyacrylamide gel. ^32P-labeled peptide was determined by cutting and counting the gel following autoradiography.
(§1) βAR kinase was purified from bovine cerebral cortex by modification of a previously described procedure (Benovic et al (1987) J. Biol. Chem. 262:9026-9032). Briefly, 250 g of bovine cortex was homogenized and the resulting high speed supernatant fraction was precipitated with 13-26% ammonium sulfate. This material was initially chromatographed on an Ultrogel AcA34 column equilibrated with 5 mM Tris-HCl, pH 7.5, 2 mM EDTA, 5 μg/ml leupeptin, 5 μg/ml pepstatin, 15 μg/ml benzamidine, 0.2 mM phenylmethyl sulfonyl fluoride (buffer A). The peak activity was diluted 1:1 with buffer A containing 0.02% triton X-100 and applied to a DEAE Sephacel column. Elution was accomplished with a 0-80 mM NaCl gradient in buffer A containing triton X-100. The peak activity was then applied directly to a CM Fractogel column and eluted with a 0-100 mM NaCl gradient in buffer A containing triton X-100. The purified kinase was stored at 4° C.
Phosphorylation of βAR was accomplished by incubating reconstituted βAR (0.5-5 pmol/incubation) with βAR kinase (10-50 ng) in a buffer containing 20 mM Tris-HCl, pH 7.5, 2 mM EDTA, 10 mM NaCl, 5 mM MgCl2, 5 mM sodium phosphate, 0.5 mM ascorbic acid, 0.15 mM [γ-^32P]ATP (1-5 cpm/fmol) at 30° C. for the indicated time (see Figures indicated below and corresponding description). Some incubations also contained 50 μM (−)-isoproterenol. Incubations were stopped by the addition of 50 μl of SDS sample buffer followed by electrophoresis on 10% homogeneous polyacrylamide gels. Phosphorylated βAR was visualized by autoradiography and the corresponding bands were excised and counted to determine the pmol of phosphate incorporated.
Synthetic βAR peptides were phosphorylated as follows by βAR kinase. […] Following autoradiography the phosphorylated peptides were excised and counted to determine the amount of phosphate incorporated. […]

[4] = target: T1, βAR kinase; experiment: Inhibition of β2AR phosphorylation by βAR kinase by synthetic peptides (Example III); type: biochemical, bovine
Experimental: FIG. 13. Inhibition of β2AR phosphorylation by synthetic peptides. Reconstituted β2AR (˜0.4 pmol) was incubated for 30 min at 30° with purified βAR kinase (˜30 ng) in the presence of 50 mM Tris-HCl, pH 7.5, 2 mM EDTA, 10 mM NaCl, 5 mM MgCl2, 5 mM sodium phosphate, 50 μM (−)-isoproterenol and 0.10 mM [γ^32P]ATP (2.0 cpm/fmol). Synthetic β2AR peptides were varied from 0 to 1 mM and included CI (Δ), CII (▴), CIII-2 (◯) and CT-1 (●). Reactions were stopped by the addition of […]. ^32P-labeled receptor was determined by cutting and counting the dried gel following autoradiography.
The β2-adrenergic receptor from hamster lung was purified to apparent homogeneity by sequential affinity and high performance liquid chromatography as described (Benovic et al (1984) Biochemistry 23:4510-4518). The purified receptor was reinserted into phosphatidylcholine vesicles as previously described (Cerione et al (1983) Nature 306:562-566). The protein-lipid pellets were resuspended in 20 mM Tris-HCl, pH 7.2, 2 mM EDTA and used as a substrate for the βAR kinase.
as §1
The inhibition of substrate phosphorylation by βAR kinase in the presence of synthetic peptides was assayed as follows. Reconstituted βAR (0.2-1 pmol/inclubation) was incubated with βAR kinase (10-30 ng) in a buffer containing 50 mM Tris-HCl, pH 7.5, 2 mM EDTA, 10 mM NaCl, 5 mM MgCl2, 5 mM sodium phosphate, 50 μM (−)-isoproterenol, 0.10 mM [γ-^32P]ATP (1-3 cpm/fmol) at 30° C. for 30 min. Synthetic β2AR peptides were varied in concentration from 0 to 2 mM. Reactions were quenched by the addition of SDS sample buffer followed by gel electrophoresis. In some experiments urea treated rod outer segments (Wilden et al (1982) Biochemistry 21:3014-3022; Shichi et al (1978) J. Biol. Chem. 253:7040-7046) were used as the substrate for βAR kinase. To further define the specificity of the peptide inhibition, phosvitin, casein (see Example I) and the synthetic peptides CT-2 and CT-3 were used as substrates for βAR kinase.
SDS polyacrylamide gel electrophoresis was performed by the method of Laemmli (Nature (1970) 227:[…]) using 10 or 15% homogeneous slab gels. SDS sample buffer contained 8% SDS, 10% glycerol, 5% β-mercaptoethanol, 25 mM Tris-HCl, pH 6.5 and 0.003% bromphenol blue. SDS urea polyacrylamide gel electrophoresis was carried out using 6.5 M urea, 0.1% SDS, 100 mM H3PO4, pH 6.8 with Tris-HCl and 9% acrylamide (Swank et al (1971) Anal. Biochem. 39:462). SDS urea sample buffer contained 1% SDS, 8M urea, 10 mM H3PO4, pH 6.8 with Tris-HCl, 1% β-mercaptoethanol and 0.003% bromphenol blue.

Row | Sequence | inhibition at 100 µM [1] [%] | Inhibition of Desensitization, % [2] [%] | phosphorylation by βAR kinase [3] | Ratio (Vmax/Km relative to β2AR + ISO) [3] | IC50 ([4]; hamster β2AR peptides, ND = no significant inhibition at ˜500 μM, read-out: IC50 (μM), inhibition of β2AR phosphorylation by βAR kinase) [µM] | inhibition of β2AR phosphorylation ([4]; tested at ˜0.5 mM)
1 | AKFERLQTVTN [β2AR-(59-69)] | 0 | 3 ± 12 |  |  |  | 
2 | GYSSNSNGKTDYMGEASGCQLGQEKESER [CT-2 (353-381)] |  |  | are phosphorylated by βAR kinase | 2.3 × 10^−6 | 142 | 
3 | QGTVPSLSLDSQGRNCSTNDSPL [CT-3 (396-418)] |  |  | are phosphorylated by βAR kinase | 1.3 × 10^−6 |  | do not inhibit
